This assay relates to 885512-296-R-J2-PDC complex spheroid growth, % test/control. The assay can be described thus: Anticancer human tumor 885512-296-R-J2-PDC patient-derived breast carcinoma cell line growth inhibition [Asc]. The note with it: for viability, T/C: stronger effect = lower value. Summed up:
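Stromal components (HUVEC and hMSC) are co-assembled with the cancer cells into multicellular spheroids. Drugs are then added singly or paired, at concentrations falling by half-log increments from a clinically achievable maximum, capped at 10 microM without known Cmax.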

[1] abbreviates: curve of first compound, second compound 0.1 µM.
Setting [2] is: curve of first compound, second compound 0.316 µM.
[3] abbreviates: curve of first compound, second compound 1 µM.
[4] abbreviates: curve of first compound, second compound 3.16 µM.
Setting [5] is: curve of first compound, second compound 10 µM.
Where [6] appears, read: second compound 0.1 µM, first compound 0.0316 µM.
[7] abbreviates: second compound 0.1 µM, first compound 0.1 µM.
Setting [8] is: second compound 0.1 µM, first compound 0.316 µM.
Where [9] appears, read: second compound 0.1 µM, first compound 1 µM.
[10] abbreviates: second compound 0.1 µM, first compound 3.16 µM.
[11] abbreviates: second compound 0.1 µM, first compound 10 µM.
The mark [12] stands for this setting: second compound 0.316 µM, first compound 0.0316 µM.
The mark [13] stands for this setting: second compound 0.316 µM, first compound 0.1 µM.
[14] abbreviates: second compound 0.316 µM, first compound 0.316 µM.
[15] abbreviates: second compound 0.316 µM, first compound 1 µM.
Setting [16] is: second compound 0.316 µM, first compound 3.16 µM.
Where [17] appears, read: second compound 0.316 µM, first compound 10 µM.
The mark [18] stands for this setting: second compound 1 µM, first compound 0.0316 µM.
Setting [19] is: second compound 1 µM, first compound 0.1 µM.
Setting [20] is: second compound 1 µM, first compound 0.316 µM.
Where [21] appears, read: second compound 1 µM, first compound 1 µM.
Where [22] appears, read: second compound 1 µM, first compound 3.16 µM.
Setting [23] is: second compound 1 µM, first compound 10 µM.
[24] abbreviates: second compound 3.16 µM, first compound 0.0316 µM.
Setting [25] is: second compound 3.16 µM, first compound 0.1 µM.
Setting [26] is: second compound 3.16 µM, first compound 0.316 µM.
Setting [27] is: second compound 3.16 µM, first compound 1 µM.
The mark [28] stands for this setting: second compound 10 µM, first compound 0.0316 µM.
Where [29] appears, read: second compound 10 µM, first compound 0.1 µM.
Where [30] appears, read: second compound 10 µM, first compound 0.316 µM.
[31] abbreviates: second compound 10 µM, first compound 1 µM.

“And” between values parts separate entries of the source, which are not always exact repeats. Equal values may be shown once.
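Also: spheroids exposed to compounds for seven days.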
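For viability, T/C in this document: 100% = DMSO vehicle control wells.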

Consider `C=CC(=O)N1CCN(c2nc(=O)n(-c3c(C)ccnc3C(C)C)c3nc(-c4c(O)cccc4F)c(F)cc23)C(C)C1` (centres undefined) + Cc1c(S(C)(=O)=O)c(-c2cc(F)cc(N3CCN(c4ccc(NS(=O)(=O)c5ccc(NC(CCN6CCC(C(=O)OCCCP(=O)(O)O)CC6)CSc6ccccc6)c(S(=O)(=O)C(F)(F)F)c5)cc4)CC3)c2)c(-c2ccc(Cl)cc2)n1C(C)C, for which the IC50 is, setting by setting: under setting [1], > 10 µM; under setting [2], > 10 µM; under setting [3], > 10 µM; under setting [4], > 10 µM; under setting [5], > 10 µM. The viability, T/C reads like this: under setting [6], 85.3%; under setting [7], 80.7%; under setting [8], 92.2%; under setting [9], 83.6%; under setting [10], 87.6%; under setting [11], 55.8%. Also, the viability, T/C runs as follows: under setting [12], 94.3%; under setting [13], 87.2%; under setting [14], 86.8%; under setting [15], 81.2%; under setting [16], 101%; under setting [17], 74.7%. In addition, the viability, T/C is, setting by setting: under setting [18], 80.6%; under setting [19], 73.5%; under setting [20], 93.3%; under setting [21], 104%; under setting [22], 85.7%; under setting [23], 62%. Moreover, the viability, T/C was 98.7% under setting [24]; 90.3% under setting [25]; 109% under setting [26]; 106% under setting [27]; 90.2% (second compound 3.16 µM, first compound 3.16 µM); 68.3% (second compound 3.16 µM, first compound 10 µM). For the same compound, the viability, T/C under setting [28] is 119%; the viability, T/C under setting [29] is 117%; the viability, T/C under setting [30] is 114%; the viability, T/C under setting [31] is 114%; the viability, T/C (second compound 10 µM, first compound 3.16 µM) is 98.8%; the viability, T/C (second compound 10 µM, first compound 10 µM) was 71.6%.
On to `O=C(c1ccc(F)c(F)c1Nc1ccc(I)cc1F)N1CC(O)([C@@H]2CCCCN2)C1`, for which the viability, T/C (compound 0.00316 µM) is 94% and 88.7% and 94.3%; the viability, T/C (compound 0.01 µM) was 89.3% and 77.1% and 88.9%; the viability, T/C (compound 0.0316 µM) was 73.9% and 62.5% and 68.7%; the viability, T/C (compound 0.1 µM) is 69.7% and 54.8% and 47.7%; the viability, T/C (compound 0.316 µM) is 45.6% and 36.5% and 35.7%; the viability, T/C (compound 1 µM) is 18.4% and 15.1% and 17.1%. For the same compound, the IC50 (curve of compound) was 0.255 µM and 0.113 µM and 0.102 µM.
As for `CCN1CCN(Cc2ccc(Nc3ncc(F)c(-c4cc(F)c5nc(C)n(C(C)C)c5c4)n3)nc2)CC1` + Cc1c(S(C)(=O)=O)c(-c2cc(F)cc(N3CCN(c4ccc(NS(=O)(=O)c5ccc(NC(CCN6CCC(C(=O)OCCCP(=O)(O)O)CC6)CSc6ccccc6)c(S(=O)(=O)C(F)(F)F)c5)cc4)CC3)c2)c(-c2ccc(Cl)cc2)n1C(C)C, the IC50 was > 1 µM under setting [1]; > 1 µM under setting [2]; > 1 µM under setting [3]; > 1 µM under setting [4]; > 1 µM under setting [5]. In addition, the viability, T/C runs as follows: (second compound 0.1 µM, first compound 0.00316 µM) 85.9%; (second compound 0.1 µM, first compound 0.01 µM) 104%; under setting [6], 89.3%; under setting [7], 71.7%; under setting [8], 65.5%; under setting [9], 61%. Besides, the viability, T/C was 102% (second compound 0.316 µM, first compound 0.00316 µM); 89.9% (second compound 0.316 µM, first compound 0.01 µM); 83.3% under setting [12]; 68.3% under setting [13]; 66.1% under setting [14]; 65% under setting [15]. The viability, T/C was 92.6% (second compound 1 µM, first compound 0.00316 µM); 91.5% (second compound 1 µM, first compound 0.01 µM); 76% under setting [18]; 76.3% under setting [19]; 67.8% under setting [20]; 69.1% under setting [21]. Besides, the viability, T/C is, setting by setting: (second compound 3.16 µM, first compound 0.00316 µM) 90.8%; (second compound 3.16 µM, first compound 0.01 µM) 83.5%; under setting [24], 92.6%; under setting [25], 89%; under setting [26], 72.5%; under setting [27], 61.9%. Moreover, the viability, T/C (second compound 10 µM, first compound 0.00316 µM) was 118%; the viability, T/C (second compound 10 µM, first compound 0.01 µM) was 116%; the viability, T/C under setting [28] is 108%; the viability, T/C under setting [29] is 126%; the viability, T/C under setting [30] was 125%; the viability, T/C under setting [31] was 113%.
Consider `C=CC(=O)N1CCN(c2nc(=O)n(-c3c(C)ccnc3C(C)C)c3nc(-c4c(O)cccc4F)c(F)cc23)C(C)C1` (centres undefined) + CNC(C)C(=O)NC1CN(S(=O)(=O)c2cccc(S(=O)(=O)N3CCC4CCC(C(=O)NC(c5ccccc5)c5ccccc5)N4C(=O)C(NC(=O)C(C)NC)C3)c2)CCC2CCC(C(=O)NC(c3ccccc3)c3ccccc3)N2C1=O, for which the IC50 was > 10 µM (curve of first compound, second compound 0.01 µM); > 10 µM (curve of first compound, second compound 0.0316 µM); > 10 µM under setting [1]; > 10 µM under setting [2]; > 10 µM under setting [3]. Besides, the viability, T/C (second compound 0.01 µM, first compound 0.0316 µM) is 88.2%; the viability, T/C (second compound 0.01 µM, first compound 0.1 µM) was 80.9%; the viability, T/C (second compound 0.01 µM, first compound 0.316 µM) was 101%; the viability, T/C (second compound 0.01 µM, first compound 1 µM) was 81.3%; the viability, T/C (second compound 0.01 µM, first compound 3.16 µM) is 90.6%; the viability, T/C (second compound 0.01 µM, first compound 10 µM) is 64.2%. The viability, T/C (second compound 0.0316 µM, first compound 0.0316 µM) was 90.3%; the viability, T/C (second compound 0.0316 µM, first compound 0.1 µM) was 104%; the viability, T/C (second compound 0.0316 µM, first compound 0.316 µM) is 96.6%; the viability, T/C (second compound 0.0316 µM, first compound 1 µM) was 97.2%; the viability, T/C (second compound 0.0316 µM, first compound 3.16 µM) is 92.6%; the viability, T/C (second compound 0.0316 µM, first compound 10 µM) is 68.5%. Moreover, the viability, T/C under setting [6] is 111%; the viability, T/C under setting [7] is 109%; the viability, T/C under setting [8] is 98%; the viability, T/C under setting [9] was 98.6%; the viability, T/C under setting [10] was 87.7%; the viability, T/C under setting [11] was 66.8%. Further, the viability, T/C by setting is: under setting [12], 104%; under setting [13], 106%; under setting [14], 98.8%; under setting [15], 100%; under setting [16], 84.4%; under setting [17], 68.6%. In addition, the viability, T/C runs as follows: under setting [18], 105%; under setting [19], 103%; under setting [20], 104%; under setting [21], 109%; under setting [22], 79.2%; under setting [23], 59%.
As for `NC1CCC(NC2CC2c2ccccc2)CC1` (centres undefined), the viability, T/C by setting is: (compound 0.000316 µM) 128% and 119% and 118%; (compound 0.001 µM) 129% and 116% and 126%; (compound 0.00316 µM) 118% and 117% and 122%; (compound 0.01 µM) 127% and 125% and 122%; (compound 0.0316 µM) 130% and 120% and 127%; (compound 0.1 µM) 122% and 110% and 125%. Besides, the IC50 (curve of compound) was > 0.1 µM.

For the origin of these results see PubChem BioAssay AID1963447 (Molecular Pharmacology Branch, DTP, NCI, 2024).
